We go through 16 molecules from patent publication US8034940B2, “Modulators of glucocorticoid receptor, AP-1, and/or NF-κB activity and use thereof” (Bristol-Myers Squibb Company, priority 2006, dated 2011).

Structures are written as SMILES.

Assay [1] deals with T1, human full-length glucocorticoid receptor (Homo sapiens, UniProt P04150).
T1 sequence (P04150 1-777): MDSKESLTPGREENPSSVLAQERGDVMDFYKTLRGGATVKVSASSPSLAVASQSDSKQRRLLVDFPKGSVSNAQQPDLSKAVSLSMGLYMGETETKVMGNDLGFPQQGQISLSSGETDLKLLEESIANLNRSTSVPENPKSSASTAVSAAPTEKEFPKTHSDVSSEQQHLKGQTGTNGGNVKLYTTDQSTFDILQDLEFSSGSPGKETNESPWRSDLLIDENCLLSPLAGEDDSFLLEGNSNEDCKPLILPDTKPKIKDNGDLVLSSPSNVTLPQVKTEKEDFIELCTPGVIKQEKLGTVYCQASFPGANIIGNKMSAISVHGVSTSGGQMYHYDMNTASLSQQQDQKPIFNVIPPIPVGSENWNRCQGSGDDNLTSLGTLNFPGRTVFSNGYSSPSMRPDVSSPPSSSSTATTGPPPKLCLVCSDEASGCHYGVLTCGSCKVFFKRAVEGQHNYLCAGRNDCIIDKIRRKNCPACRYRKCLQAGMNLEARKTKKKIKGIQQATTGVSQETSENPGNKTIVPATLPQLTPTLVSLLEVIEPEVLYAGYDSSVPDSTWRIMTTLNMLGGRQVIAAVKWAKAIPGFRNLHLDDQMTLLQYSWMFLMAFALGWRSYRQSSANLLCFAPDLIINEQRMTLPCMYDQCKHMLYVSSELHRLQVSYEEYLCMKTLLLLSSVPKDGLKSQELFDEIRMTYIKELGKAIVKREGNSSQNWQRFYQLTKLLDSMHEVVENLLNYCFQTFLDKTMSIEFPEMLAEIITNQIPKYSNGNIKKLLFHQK
Nature of the assay: Glucocorticoid Receptor Binding Assay (II), fluorescence polarization, FITC-dexamethasone. On the set-up: recombinantly expressed human full-length glucocorticoid receptor; purchased PanVera Co., Madison P2816. The protocol:
Glucocorticoid Receptor Binding Assay (II)^b
In order to measure the binding of compounds on the glucocorticoid receptor a commercially available kit was used (Glucocorticoid receptor competitor assay kit, PanVera Co., Madison, W1, P2816). Briefly, a cell lysate containing recombinantly expressed human full-length glucocorticoid receptor was mixed with a fluorescently labeled glucocorticoid (4 nM FITC-dexamethasone) plus or minus test molecule. After one hour at room temperature, the fluorescence polarization (FP) of the samples were measured. […] Test molecules were analyzed in the concentration range from 0.1 nM to 40 μM.

Assay [2] concerns the target T1, human full-length glucocorticoid receptor. Kind of assay: Glucocorticoid Receptor Binding Assay (I), fluorescence polarization, Fluormone GS Red. On the set-up: purified human recombinant full-length glucocorticoid receptor; purchased Invitrogen Part #2893. In outline: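 Fluorescence polarization competition: 2 nM purified full-length recombinant receptor with 1 nM Fluormone GS Red tracer, ±test compound over 8.5E-05 to 5 μM. Incubation was 2 h at room temperature in the dark before reading FP.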
(Fluorescence polarisation rises when a labelled molecule tumbles more slowly, as on binding a larger partner.)

Where [3] appears, read: GR Binding Assay (II), read-out: GR (Ki, nM) (GR Binding Assay (II)).
Where [4] appears, read: GR Binding Assay (I), read-out: GR (Ki, nM) (GR Binding Assay (I)).

For `CC(C)(C(=O)Nc1nccs1)[C@H]1c2ccccc2Oc2nc(N3CCCCC3)ccc21` [Example 148], the inhibition constant Ki (usually the equilibrium dissociation constant of an inhibitor or competing ligand from its target) in assay [1] (setting [3]) is 11.1 nM.
Consider `CN(C)c1ccc2c(n1)Oc1ccccc1[C@@H]2C(C)(C)C(=O)Nc1nncs1` [Example 149], for which the Ki in assay [1] (setting [3]) was 11 nM.
As to `CC1CCCN(c2ccc3c(n2)Oc2ccccc2[C@@H]3C(C)(C)C(=O)Nc2nncs2)C1` (stereo partly drawn) [Example 150], the Ki in assay [1] (setting [3]) came to 26.9 nM.
On to `CC(C)(C(=O)Nc1nncs1)[C@H]1c2ccccc2Oc2nc(NC(=O)c3ccccc3)ccc21` [Example 152], for which the Ki in assay [1] (setting [3]) is 10.9 nM.
Turning to `CCCCNc1ccc2c(c1)Oc1ncccc1C2C(C)(C)C(=O)Nc1nccs1` (stereo not drawn) [Example 155], the Ki in assay [1] (setting [3]) was 31.8 nM.
Still for that read-out and setting: the same measure for `CC(C)Nc1ccc2c(n1)Oc1ccccc1C2C(C)(C)C(=O)Nc1nccs1` (stereo not drawn) [Example 157]: 186 nM.
Regarding `CC(C)(C(=O)Nc1nncs1)[C@H]1c2ccccc2Oc2nc(N3CCC(=O)CC3)ccc21` [Example 161], the Ki in assay [1] (setting [3]) came out at 36.6 nM.
On the same count and under the same terms, the same measure for `COc1ccc(-c2ccc3c(n2)Oc2ccccc2[C@H]3C(C)(C)C(=O)Nc2nncs2)cc1` [Example 162]: 256 nM.
Take `CC(C)(C(=O)Nc1nncs1)[C@H]1c2ccccc2Oc2nc(-c3ccccc3)ccc21` [Example 171]: the Ki was 7.15 nM in assay [2] and 10.2 nM in assay [1] (setting [3]).
Take `CC(C)(C(=O)Nc1nncs1)[C@H]1c2ccccc2Oc2nc(-c3cccc4ccccc34)ccc21` [Example 177]: the figures for the Ki in assay [2] (setting [4]) and in assay [1] (setting [3]) were above 1150 nM and 460 nM, respectively.
For `CC(C)(C(=O)Nc1nncs1)[C@H]1c2ccccc2Oc2nc(-c3ccc(Cl)cc3)ccc21` [Example 178] the same measures were 10.6 nM and 4.7 nM.
Turning to `Cc1cccc(-c2ccc3c(n2)Oc2ccccc2[C@@H]3C(C)(C)C(=O)Nc2nncs2)c1` [Example 179], the Ki turned out to be 64.6 nM in assay [2] and 37.9 nM in assay [1].
Regarding `CC(C)(C(=O)Nc1nncs1)[C@H]1c2ccccc2Oc2nc(-c3ccc4ccccc4c3)ccc21` [Example 186], the Ki was 386 nM in assay [2] (setting [4]) and 84.6 nM in assay [1] (setting [3]).
`CC(C)(C(=O)Nc1nncs1)[C@H]1c2ccccc2Oc2nc(-c3cccnc3)ccc21` [Example 187]: the figures for the Ki in assay [2] (setting [4]) and in assay [1] (setting [3]) were 33.1 nM and 34.4 nM, respectively.
On to `COC(=O)c1ccc(-c2ccc3c(n2)Oc2ccccc2[C@@H]3C(C)(C)C(=O)Nc2nncs2)cc1` [Example 192], for which the results for the inhibition constant (Ki) in assay [2] (setting [4]) and in assay [1] (setting [3]) were 12.3 nM and 13.1 nM, respectively.
Regarding `CC(C)(C(=O)Nc1nncs1)[C@H]1c2ccccc2Oc2nc(-c3ccc(C#N)cc3)ccc21` [Example 203], the figures for the Ki in assay [2] (setting [4]) and in assay [1] (setting [3]) were 4.61 nM and 13.1 nM, respectively.
